From ChEMBL document CHEMBL1143840, “In vivo efficacy of anidulafungin and caspofungin against Candida glabrata and association with in vitro potency in the presence of sera” (Antimicrob Agents Chemother, 2007)
Values after ≈ are worked out from the molar mass of the structure shown. Values joined by “and” are separate entries in the source; they are usually repeats but may differ in a detail not shown here. Equal values may be shown once. Active and inactive are the calls of the source. The rule behind the calls is not given here. *1 amine or outer side, *2 acyl side, *3 side chain or, on linkers, in order; H or OH if unused. Where a SMILES comes first, the peptide text is derived from it. Bridges are numbered along the chain shown (N, C = ends). [ ]: non-standard residue; d: D form. The star is where a group is joined. pTerphenylCO(4''-OnC5H11) = CCCCCOc1ccc(-c2ccc(-c3ccc(C(=O)*)cc3)cc2)cc1; Orn(4R-OH,5R-OH) = O=C([C@H](C[C@@H](O)[C@@H](O)N[*:3])N[*:1])[*:2]; hTyr(3S-OH,4S-OH) = N[C@H](C(=O)O)[C@H](O)[C@@H](O)c1ccc(O)cc1; Pro(3S-OH,4S-Me) = C[C@H]1CN[C@H](C(=O)O)[C@H]1O; Hyp = O=C(O)[C@@H]1C[C@@H](O)CN1

What was measured:
Nakaseomyces glabratus [1] = experiment: Antifungal activity against Candida glabrata 05-62 isolate after 22 hrs by XTT assay; assay type: functional, organism-based
Nakaseomyces glabratus [2] = experiment: Antifungal activity against Candida glabrata 05-62 isolate in presence of 5% mouse serum after 24 hrs by broth microdilution method; assay type: functional
Nakaseomyces glabratus [3] = experiment: Antifungal activity against Candida glabrata 05-761 isolate infected ICR mouse kidney assessed as reduction of tissue fungal burden at 1 mg/kg, ip; assay type: functional, organism-based; design: dose 1 mg/kg
Nakaseomyces glabratus [4] = experiment: Antifungal activity against Candida glabrata 05-62 isolate in presence of 5% human serum after 22 hrs by XTT assay; assay type: functional, organism-based
Nakaseomyces glabratus [5] = experiment: Antifungal activity against Candida glabrata 05-761 isolate after 24 hrs by broth microdilution method; assay type: functional
Nakaseomyces glabratus [6] = experiment: Antifungal activity against Candida glabrata 05-62 isolate after 2 hrs in presence of 5% mouse serum by XTT reduction assay; assay type: functional
Nakaseomyces glabratus [7] = experiment: Antifungal activity against Candida glabrata 05-62 isolate in presence of 50% human serum after 24 hrs by broth microdilution method; assay type: functional
Nakaseomyces glabratus [8] = experiment: Antifungal activity against Candida glabrata 05-761 isolate assessed as decrease in fungal turbidity in presence of 5% human serum by microdilution method; assay type: functional
Nakaseomyces glabratus [9] = experiment: Antifungal activity against Candida glabrata 05-761 isolate in presence of 5% human serum after 24 hrs by broth microdilution method; assay type: functional, organism-based
Nakaseomyces glabratus [10] = experiment: Antifungal activity against Candida glabrata 05-761 isolate infected ICR mouse kidney assessed as reduction of tissue fungal burden at 5 mg/kg, ip; assay type: functional, organism-based; design: dose 5 mg/kg
Nakaseomyces glabratus [11] = experiment: Antifungal activity against Candida glabrata 05-62 isolate in presence of 5% human serum after 24 hrs by broth microdilution method; assay type: functional, organism-based
Nakaseomyces glabratus [12] = experiment: Antifungal activity against Candida glabrata 05-761 isolate in presence of 50% human serum after 24 hrs by broth microdilution method; assay type: functional
Nakaseomyces glabratus [13] = experiment: Antifungal activity against Candida glabrata 05-761 isolate infected ICR mouse kidney assessed as reduction of tissue fungal burden at 0.5 mg/kg, ip; assay type: functional, organism-based; design: dose 0.5 mg/kg
Nakaseomyces glabratus [14] = experiment: Antifungal activity against Candida glabrata 05-761 isolate assessed as decrease in fungal turbidity in presence of 50% mouse serum by microdilution method; assay type: functional
Nakaseomyces glabratus [15] = experiment: Antifungal activity against Candida glabrata 05-62 isolate in presence of 50% mouse serum after 24 hrs by broth microdilution method; assay type: functional
Nakaseomyces glabratus [16] = experiment: Antifungal activity against Candida glabrata 05-761 isolate assessed as decrease in fungal turbidity by microdilution method; assay type: functional
Nakaseomyces glabratus [17] = experiment: Antifungal activity against Candida glabrata 05-761 isolate in presence of 50% mouse serum after 24 hrs by broth microdilution method; assay type: functional
Nakaseomyces glabratus [18] = experiment: Antifungal activity against Candida glabrata 05-761 isolate after 22 hrs by XTT assay; assay type: functional, organism-based
Nakaseomyces glabratus [19] = experiment: Antifungal activity against Candida glabrata 05-62 isolate assessed as decrease in fungal turbidity in presence of 5% human serum by microdilution method; assay type: functional
Nakaseomyces glabratus [20] = experiment: Antifungal activity against Candida glabrata 05-62 isolate assessed as decrease in fungal turbidity in presence of 50% human serum by microdilution method; assay type: functional
Nakaseomyces glabratus [21] = experiment: Antifungal activity against Candida glabrata 05-62 isolate after 2 hrs in presence of 50% mouse serum by XTT reduction assay; assay type: functional
Nakaseomyces glabratus [22] = experiment: Antifungal activity against Candida glabrata 05-761 isolate assessed as decrease in fungal turbidity in presence of 50% human serum by microdilution method; assay type: functional
Nakaseomyces glabratus [23] = experiment: Antifungal activity against Candida glabrata 05-761 isolate in presence of 5% mouse serum after 24 hrs by broth microdilution method; assay type: functional
Nakaseomyces glabratus [24] = experiment: Antifungal activity against Candida glabrata 05-62 isolate after 24 hrs by broth microdilution method; assay type: functional
Nakaseomyces glabratus [25] = experiment: Antifungal activity against Candida glabrata 05-761 isolate assessed as decrease in fungal turbidity in presence of 5% mouse serum by microdilution method; assay type: functional
[26] = Nakaseomyces glabratus, 24 h, read-out: MIC

Row | Compound | IC50 (Nakaseomyces glabratus [1]) [µg/mL] | IC90 (Nakaseomyces glabratus [1]) [µg/mL] | MIC (Nakaseomyces glabratus [2]) [µg/mL] | Activity (Nakaseomyces glabratus [3]) | IC50 (Nakaseomyces glabratus [4]) [µg/mL] | IC90 (Nakaseomyces glabratus [4]) [µg/mL] | MIC (Nakaseomyces glabratus [6]) [µg/mL] | MIC (Nakaseomyces glabratus [7]) [µg/mL] | MIC (Nakaseomyces glabratus [8]) [µg/mL] | IC50 (Nakaseomyces glabratus [9]) [µg/mL] | IC90 (Nakaseomyces glabratus [9]) [µg/mL] | MIC (Nakaseomyces glabratus [9]) [µg/mL] | Activity (Nakaseomyces glabratus [10]) | IC50 (Nakaseomyces glabratus [11]) [µg/mL] | IC90 (Nakaseomyces glabratus [11]) [µg/mL] | MIC (Nakaseomyces glabratus [11]) [µg/mL] | MIC (Nakaseomyces glabratus [12]) [µg/mL] | Activity (Nakaseomyces glabratus [13]) | MIC (Nakaseomyces glabratus [14]) [µg/mL] | MIC (Nakaseomyces glabratus [15]) [µg/mL] | other results
1 | CCCCCOc1ccc(-c2ccc(-c3ccc(C(=O)N[C@H]4C[C@@H](O)[C@@H](O)NC(=O)[C@@H]5[C@@H](O)[C@@H](C)CN5C(=O)[C@H]([C@@H](C)O)NC(=O)[C@H]([C@H](O)[C@@H](O)c5ccc(O)cc5)NC(=O)[C@@H]5C[C@@H](O)CN5C(=O)[C@H]([C@@H](C)O)NC4=O)cc3)cc2)cc1 [ANIDULAFUNGIN] ({pTerphenylCO(4''-OnC5H11)}-[Orn(4R-OH,5R-OH)]T[Hyp][hTyr(3S-OH,4S-OH)]T[Pro(3S-OH,4S-Me)]; lactam 1-C) | 0.31 (≈ 0.272 µM) | 0.41 (≈ 0.36 µM) | 4 | Active | 1.7 | 3.1 | 4 | 16 | 0.5 | 0.31 | 0.39 | 0.5 | inactive | 1.7 | 3.1 | 2 | 2 | Active | 1 | 8 | MIC (Nakaseomyces glabratus [5]): 0.125 µg/mL and 0.06 µg/mL; MIC (Nakaseomyces glabratus [16]): 0.06 µg/mL (≈ 0.0526 µM); MIC (Nakaseomyces glabratus [17]): 1 µg/mL; IC50 (Nakaseomyces glabratus [18]): 0.05 µg/mL (≈ 0.0438 µM); IC90 (Nakaseomyces glabratus [18]): 0.16 µg/mL (≈ 0.14 µM); MIC (Nakaseomyces glabratus [19]): 2 µg/mL; MIC (Nakaseomyces glabratus [20]): 8 µg/mL; MIC (Nakaseomyces glabratus [21]): 8 µg/mL; MIC (Nakaseomyces glabratus [22]): 1 µg/mL; MIC (Nakaseomyces glabratus [23]): 0.5 µg/mL; MIC (Nakaseomyces glabratus [24]): 0.25 µg/mL (≈ 0.219 µM); MIC (Nakaseomyces glabratus [24]; [26]): 0.5 µg/mL (≈ 0.438 µM); MIC (Nakaseomyces glabratus [25]): 0.5 µg/mL
2 | CC[C@H](C)C[C@H](C)CCCCCCCCC(=O)N[C@H]1C[C@@H](O)[C@@H](NCCN)NC(=O)[C@@H]2[C@@H](O)CCN2C(=O)[C@H]([C@H](O)CCN)NC(=O)[C@H]([C@H](O)[C@@H](O)c2ccc(O)cc2)NC(=O)[C@@H]2C[C@@H](O)CN2C(=O)[C@H]([C@@H](C)O)NC1=O [CASPOFUNGIN] | 1.2 (≈ 1.1 µM) | > 32 | > 32 | Active | 1.4 | > 32 | 4 | > 32 | 0.25 | 0.29 | 0.33 | 0.5 | inactive | 1.4 | > 32 | > 32 | 1 | Active | 2 | > 32 | MIC (Nakaseomyces glabratus [5]; [26]): 2 µg/mL (≈ 1.83 µM); MIC (Nakaseomyces glabratus [16]): 1 µg/mL (≈ 0.915 µM); MIC (Nakaseomyces glabratus [17]): 2 µg/mL; IC50 (Nakaseomyces glabratus [18]): 1.1 µg/mL (≈ 1.01 µM); IC90 (Nakaseomyces glabratus [18]): 1.6 µg/mL (≈ 1.46 µM); MIC (Nakaseomyces glabratus [19]): 2 µg/mL; MIC (Nakaseomyces glabratus [20]): 4 µg/mL; MIC (Nakaseomyces glabratus [21]): 8 µg/mL; MIC (Nakaseomyces glabratus [22]): 1 µg/mL; MIC (Nakaseomyces glabratus [23]): 1 µg/mL; MIC (Nakaseomyces glabratus [24]; [26]): > 32 µg/mL; MIC (Nakaseomyces glabratus [25]): 1 µg/mL
